Assay results: patent US20070021434A1, “NON-NUCLEOSIDE ANTI-HEPACIVIRUS AGENTS AND USES THEREOF” (Migenix Inc., priority 2005, published 2007)

Target: HCV RdRp (NS5B) (UniProt P26663)
Assay type: biochemical, hepatitis C virus

Chain of HCV RdRp (NS5B) (P26663 whole entry, looked up): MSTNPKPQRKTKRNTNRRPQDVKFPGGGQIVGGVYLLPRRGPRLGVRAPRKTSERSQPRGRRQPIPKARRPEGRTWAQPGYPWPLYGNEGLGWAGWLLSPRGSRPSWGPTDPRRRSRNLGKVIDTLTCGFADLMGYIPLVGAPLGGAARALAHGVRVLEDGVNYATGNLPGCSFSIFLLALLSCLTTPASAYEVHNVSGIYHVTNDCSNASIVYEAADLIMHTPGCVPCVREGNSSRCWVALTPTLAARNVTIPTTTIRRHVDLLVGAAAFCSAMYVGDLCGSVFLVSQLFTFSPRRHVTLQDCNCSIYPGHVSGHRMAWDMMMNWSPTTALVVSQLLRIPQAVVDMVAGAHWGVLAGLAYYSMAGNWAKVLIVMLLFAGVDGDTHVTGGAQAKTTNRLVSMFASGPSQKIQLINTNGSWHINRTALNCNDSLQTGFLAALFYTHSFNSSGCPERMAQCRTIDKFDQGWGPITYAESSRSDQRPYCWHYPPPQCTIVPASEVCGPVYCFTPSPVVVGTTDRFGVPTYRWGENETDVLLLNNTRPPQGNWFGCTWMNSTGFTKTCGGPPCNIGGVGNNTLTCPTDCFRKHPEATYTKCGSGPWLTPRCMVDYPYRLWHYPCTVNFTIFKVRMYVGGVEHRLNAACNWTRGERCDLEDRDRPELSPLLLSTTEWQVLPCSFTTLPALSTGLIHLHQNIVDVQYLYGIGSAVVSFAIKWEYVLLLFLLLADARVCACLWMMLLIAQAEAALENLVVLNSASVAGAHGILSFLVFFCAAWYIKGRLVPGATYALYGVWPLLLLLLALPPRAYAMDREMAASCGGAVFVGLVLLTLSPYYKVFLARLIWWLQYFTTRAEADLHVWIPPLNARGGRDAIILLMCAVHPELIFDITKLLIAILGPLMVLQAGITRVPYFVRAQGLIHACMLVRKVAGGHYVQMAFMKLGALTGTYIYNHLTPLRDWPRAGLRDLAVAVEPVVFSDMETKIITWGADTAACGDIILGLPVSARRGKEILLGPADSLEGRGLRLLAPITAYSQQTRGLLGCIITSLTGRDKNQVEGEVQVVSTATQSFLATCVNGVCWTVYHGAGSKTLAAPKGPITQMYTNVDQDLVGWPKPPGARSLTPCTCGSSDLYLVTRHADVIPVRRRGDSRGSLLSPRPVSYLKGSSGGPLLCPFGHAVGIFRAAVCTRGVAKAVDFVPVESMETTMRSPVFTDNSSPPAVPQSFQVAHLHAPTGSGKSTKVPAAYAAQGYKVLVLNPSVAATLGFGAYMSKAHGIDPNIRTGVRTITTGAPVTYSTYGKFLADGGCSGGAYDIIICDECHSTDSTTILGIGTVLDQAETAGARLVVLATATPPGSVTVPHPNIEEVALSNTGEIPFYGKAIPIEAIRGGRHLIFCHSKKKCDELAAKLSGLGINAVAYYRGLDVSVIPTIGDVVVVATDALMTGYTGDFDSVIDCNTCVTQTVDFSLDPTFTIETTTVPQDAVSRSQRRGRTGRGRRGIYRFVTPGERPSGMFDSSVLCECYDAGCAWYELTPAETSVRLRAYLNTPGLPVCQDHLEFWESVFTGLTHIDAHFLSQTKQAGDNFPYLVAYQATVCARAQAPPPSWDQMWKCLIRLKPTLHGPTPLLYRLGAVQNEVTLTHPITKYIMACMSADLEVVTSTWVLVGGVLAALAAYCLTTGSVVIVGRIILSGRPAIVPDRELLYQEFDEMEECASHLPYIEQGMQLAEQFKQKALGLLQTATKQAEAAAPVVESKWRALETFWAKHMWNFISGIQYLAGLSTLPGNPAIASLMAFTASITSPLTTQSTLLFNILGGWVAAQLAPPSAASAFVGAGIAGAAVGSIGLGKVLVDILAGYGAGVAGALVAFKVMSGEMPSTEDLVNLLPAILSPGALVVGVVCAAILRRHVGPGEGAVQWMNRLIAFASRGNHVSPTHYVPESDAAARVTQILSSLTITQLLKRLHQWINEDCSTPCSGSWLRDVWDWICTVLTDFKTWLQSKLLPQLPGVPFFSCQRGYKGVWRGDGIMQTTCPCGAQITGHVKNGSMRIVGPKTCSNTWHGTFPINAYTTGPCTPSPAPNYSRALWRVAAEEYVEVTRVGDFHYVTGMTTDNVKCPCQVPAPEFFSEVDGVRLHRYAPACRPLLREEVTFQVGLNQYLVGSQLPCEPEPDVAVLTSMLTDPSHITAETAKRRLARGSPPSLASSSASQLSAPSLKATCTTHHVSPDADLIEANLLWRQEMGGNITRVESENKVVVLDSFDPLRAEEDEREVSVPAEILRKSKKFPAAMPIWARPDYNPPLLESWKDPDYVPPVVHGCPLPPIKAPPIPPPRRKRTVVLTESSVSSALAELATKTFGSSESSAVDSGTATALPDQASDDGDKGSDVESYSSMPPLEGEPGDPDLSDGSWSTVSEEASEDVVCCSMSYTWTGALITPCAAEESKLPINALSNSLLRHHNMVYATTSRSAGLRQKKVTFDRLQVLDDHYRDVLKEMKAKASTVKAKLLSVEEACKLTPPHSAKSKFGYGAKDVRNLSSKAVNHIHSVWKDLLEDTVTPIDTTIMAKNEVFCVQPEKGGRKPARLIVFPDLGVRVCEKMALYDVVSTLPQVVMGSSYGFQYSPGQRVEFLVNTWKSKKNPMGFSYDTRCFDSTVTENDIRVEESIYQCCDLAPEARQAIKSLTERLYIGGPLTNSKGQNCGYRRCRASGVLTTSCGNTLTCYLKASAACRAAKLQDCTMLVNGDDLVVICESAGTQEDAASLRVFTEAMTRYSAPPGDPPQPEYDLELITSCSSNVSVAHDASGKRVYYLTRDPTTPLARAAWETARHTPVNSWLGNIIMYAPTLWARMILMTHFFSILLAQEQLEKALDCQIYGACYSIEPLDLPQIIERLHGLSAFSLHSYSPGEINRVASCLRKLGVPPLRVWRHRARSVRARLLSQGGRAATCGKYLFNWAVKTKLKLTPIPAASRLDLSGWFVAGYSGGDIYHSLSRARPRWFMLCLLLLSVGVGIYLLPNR

## NCCC(=O)Nc1ccccc1NC(=O)CNC(=O)OCC1c2ccccc2-c2ccccc21 [Compound 312, {[2-(3-AMINO-PROPIONYLAMINO)-PHENYLCARBAMOYL]-METHYL}-CARBAMIC ACID 9H-FLUOREN-9-YLMETHYL ESTER]
  IC50: > 50 µM

## NCCCCC(NC(=O)OCC1c2ccccc2-c2ccccc21)C(=O)NCc1ccccc1 (stereo in doubt) [Compound 21, (S)-(5-AMINO-1-BENZYLCARBAMOYL-PENTYL)-CARBAMIC ACID 9H-FLUOREN-9-YLMETHYL ESTER]
  IC50: > 50 µM

## NCCC[C@@H](NC(=O)OCC1c2ccccc2-c2ccccc21)C(=O)Nc1ccc(C2CCCCC2)cc1 [Compound 198, (R)-[4-AMINO-1-(4-CYCLOHEXYL-PHENYLCARBAMOYL)-BUTYL]-CARBAMIC ACID 9H-FLUOREN-9-YLMETHYL ESTER]
  IC50: < 10 µM

## NCCCC[C@H](NC(=O)OCC1c2ccccc2-c2ccccc21)C(=O)Nc1ccc(CN(C(=O)c2ccco2)C2CCCCC2)cc1 [Compound 6, (S)-[5-AMINO-1-(4-{[CYCLOHEXYL-(FURAN-2-CARBONYL)-AMINO]-METHYL}-PHENYLCARBAMOYL)-PENTYL]-CARBAMIC ACID 9H-FLUOREN-9-YL METHYL ESTER]
  IC50: < 10 µM

## Cc1ccc(NC(=O)C(N)CNC(=O)OCC2c3ccccc3-c3ccccc32)cc1 [Compound 84, (R)-(2-AMINO-2-P-TOLYLCARBAMOYL-ETHYL)-CARBAMIC ACID 9H-FLUOREN-9-YLMETHYL ESTER]
  IC50: > 50 µM

## Cc1ccc(NC(=O)[C@H](CCCCN)NC(=O)Nc2ccc(OCc3cc(F)ccc3F)cc2)cc1 [Compound 286, (S)-6-AMINO-2-{3-[4-(2,5-DIFLUORO-BENZYLOXY)-PHENYL]-UREIDO}-HEXANOIC ACID P-TOLYLAMIDE]
  IC50: < 10 µM

## CC(C)(C)c1ccc(NC(=O)[C@H](Cc2ccc(CN)cc2)NC(=O)NC(c2ccccc2)c2ccccc2)cc1 [Compound 151, (S)-3-(4-AMINOMETHYL-PHENYL)-2-(3-BENZHYDRYL-UREIDO)-N-(4-TERT-BUTYL-PHENYL)-PROPIONAMIDE]
  IC50: < 10 µM

## CC(C)(C)c1ccc(NC(=O)[C@H](Cc2ccc(CN)cc2)NC(=O)Nc2ccc3c(c2)Cc2ccccc2-3)cc1 [Compound 152, (S)-3-(4-AMINOMETHYL-PHENYL)-N-(4-TERT-BUTYL-PHENYL)-2-[3-(9H-FLUOREN-2-YL)-UREIDO]-PROPIONAMIDE]
  IC50: < 10 µM

## Cc1ccc(NC(=O)[C@H](CCCCN)NC(=O)Nc2ccc(OCc3cc(F)cc(F)c3)cc2)cc1 [Compound 256, (S)-6-AMINO-2-{3-[4-(3,5-DIFLUORO-BENZYLOXY)-PHENYL]-UREIDO}-HEXANOIC ACID P-TOLYLAMIDE]
  IC50: > 50 µM

## Cc1ccc(NC(=O)C(CCCCN)NC(=O)Nc2ccc(C=Cc3ccccc3)cc2)cc1 [Compound 236, (S)-6-AMINO-2-[3-(4-STYRYL-PHENYL)-UREIDO]-HEXANOIC ACID P-TOLYLAMIDE]
  IC50: < 10 µM

## COC(=O)c1ccc(C(=O)NC(C)(C)C(=O)Nc2ccc(CN(C(=O)c3ccco3)C3CCCCC3)cc2)cc1 [Compound 3, N-[1-(4-{[CYCLOHEXYL-(FURAN-2-CARBONYL)-AMINO]-METHYL}-PHENYLCARBAMOYL)-1-METHYL-ETHYL]-TERE[…] METHYL ESTER]
  IC50: > 50 µM

## COc1ccc(C[C@H](N)C(=O)Nc2ccc(CN(C(=O)c3ccco3)C3CCCCC3)cc2)cc1 [Compound 9, (S)-FURAN-2-CARBOXYLIC ACID {4-[2-AMINO-3-(4-METHOXY-PHENYL)-PROPIONYLAMINO]-BENZYL}-CYCLOHEXYL-AMIDE]
  IC50: > 50 µM

## NCCCCCCNC(=O)[C@@H](NC(=O)OCC1c2ccccc2-c2ccccc21)c1ccccc1 [Compound 313, (S)-[(6-AMINO-HEXYLCARBAMOYL)-PHENYL-METHYL]-CARBAMIC ACID 9H-FLUOREN-9-YLMETHYL ESTER]
  IC50: 10 to 50 µM

## NCCC[C@H](NC(=O)OCC1c2ccccc2-c2ccccc21)C(=O)Nc1ccc(CN(C(=O)c2ccco2)C2CCCCC2)cc1 [Compound 15, (S)-[4-AMINO-1-(4-{[CYCLOHEXYL-(FURAN-2-CARBONYL)-AMINO]-METHYL}-PHENYLCARBAMOYL)-BUTYL]-CARBAMIC ACID 9H-FLUOREN-9-YLMETHYL ESTER]
  IC50: 10 to 50 µM

## COc1ccc(NC(=O)[C@H](CCCCN)NC(=O)OCC2c3ccccc3-c3ccccc32)cc1 [Compound 83, (S)-[5-AMINO-1-(4-METHOXY-PHENYLCARBAMOYL)-PENTYL]-CARBAMIC ACID 9H-FLUOREN-9-YLMETHYL ESTER]
  IC50: 10 to 50 µM

## NCc1ccc(CNC(=O)[C@@H](NC(=O)Nc2ccc(OCc3ccccc3)cc2)c2ccccc2)cc1 [Compound 304, (S)-N-(4-AMINOMETHYL-BENZYL)-2-[3-(4-BENZYLOXY-PHENYL)-UREIDO]-2-PHENYL-ACETAMIDE]
  IC50: 10 to 50 µM

## NCCCC[C@H](NC(=O)NCc1ccc(Cl)c(Cl)c1)C(=O)Nc1ccc(CN(C(=O)c2ccco2)C2CCCCC2)cc1 [Compound 154, (S)-FURAN-2-CARBOXYLIC ACID (4-{6-AMINO-2-[3-(3,4-DICHLORO-BENZYL)-UREIDO]-HEXANOYLAMINO}-BENZYL)-CYCLOHEXYL-AMIDE]
  IC50: 10 to 50 µM

## Cc1ccc(N(C)C(=O)C(CCCCN)NC(=O)OCC2c3ccccc3-c3ccccc32)cc1 [Compound 92, (S)-[5-AMINO-1-(METHYL-P-TOLYL-CARBAMOYL)-PENTYL]-CARBAMIC ACID 9H-FLUOREN-9-YLMETHYL ESTER]
  IC50: > 50 µM

## NCCCC[C@@H](NC(=O)NCc1ccc(Cl)cc1)C(=O)Nc1ccc(C2CCCCC2)cc1 [Compound 164, (R)-6-AMINO-2-[3-(4-CHLORO-BENZYL)-UREIDO]-HEXANOIC ACID (4-CYCLOHEXYL-PHENYL)-AMIDE]
  IC50: < 10 µM

## Cc1ccc(NC(=O)CC2CN(C(=O)C(C)N)CCN2C(=O)OCC2c3ccccc3-c3ccccc32)cc1 [Compound 184, 4-((S)-2-AMINO-PROPIONYL)-2-(P-TOLYLCARBAMOYL-METHYL)-PIPERAZINE-1-CARBOXYLIC ACID 9H-FLUOREN-9-YLMETHYL ESTER]
  IC50: > 50 µM

## Cc1cc2cc(NC(=O)[C@H](Cc3ccc(CN)cc3)NC(=O)Nc3ccc4c(c3)Cc3ccccc3-4)ccc2[nH]1 [Compound 235, (S)-3-(4-AMINOMETHYL-PHENYL)-2-[3-(9H-FLUOREN-2-YL)-UREIDO]-N-(2-METHYL-1H-INDOL-5-YL)-PROPIONAMIDE]
  IC50: < 10 µM

## NCC(=O)Nc1ccccc1NC(=O)CNC(=O)OCC1c2ccccc2-c2ccccc21 [Compound 311, {[2-(2-AMINO-ACETYLAMINO)-PHENYLCARBAMOYL]-METHYL}-CARBAMIC ACID 9H-FLUOREN-9-YLMETHYL ESTER]
  IC50: > 50 µM

## Cc1ccc(NC(=O)C(CCCCN)NC(=O)CCc2c[nH]c3ccccc23)cc1 [Compound 89, (S)-6-AMINO-2-(3-1H-INDOL-3-YL-PROPIONYLAMINO)-HEXANOIC ACID P-TOLYLAMIDE]
  IC50: > 50 µM

## Cc1ccc(NC(=O)[C@H](CCCCN)NC(=O)OCC2c3ccccc3-c3ccccc32)cc1C [Compound 216, (S)-[5-AMINO-1-(3,4-DIMETHYL-PHENYLCARBAMOYL)-PENTYL]-CARBAMIC ACID 9H-FLUOREN-9-YLMETHYL ESTER]
  IC50: 10 to 50 µM

## NCCCC[C@H](N)C(=O)Nc1ccc(CN(C(=O)c2ccco2)C2CCCCC2)cc1 [Compound 7, (S)-FURAN-2-CARBOXYLIC ACID CYCLOHEXYL-[4-(2,6-DIAMINO-HEXANOYLAMINO)-BENZYL]-AMIDE]
  IC50: > 50 µM

## Cc1ccc(NC(=O)C(CCCCN)NC(=O)CN(C)Cc2ccccc2)cc1 [Compound 353, (S)-6-AMINO-2-[2-(BENZYL-METHYL-AMINO)-ACETYLAMINO]-HEXANOIC ACID P-TOLYLAMIDE]
  IC50: > 50 µM

## NCCCC[C@H](NC(=O)OCC1c2ccccc2-c2ccccc21)C(=O)Nc1ccc2[nH]ncc2c1 [Compound 82, (S)-[5-AMINO-1-(1H-INDAZOL-5-YLCARBAMOYL)-PENTYL]-CARBAMIC ACID 9H-FLUOREN-9-YLMETHYL ESTER]
  IC50: > 50 µM

## Cc1ccc(NC(=O)[C@H](CCCCN)NC(=O)OCC2c3ccccc3-c3ccccc32)cn1 [Compound 229, (S)-[5-AMINO-1-(6-METHYL-PYRIDIN-3-YLCARBAMOYL)-PENTYL]-CARBAMIC ACID 9H-FLUOREN-9-YLMETHYL ESTER]
  IC50: > 50 µM

## Cc1ccc(NC(=O)C(Cc2c[nH]c3ccccc23)NC(=O)OCC2c3ccccc3-c3ccccc32)cc1 [Compound 378, (S)-[2-(1H-INDOL-3-YL)-1-P-TOLYLCARBAMOYL-ETHYL]-CARBAMIC ACID 9H-FLUOREN-9-YLMETHYL ESTER]
  IC50: > 50 µM

## O=C(CC1CNCCN1C(=O)NCc1ccc(Cl)c(Cl)c1)Nc1ccc(C2CCCCC2)cc1 (stereo not drawn) [Compound 160, 2-[(4-CYCLOHEXYL-PHENYLCARBAMOYL)-METHYL]-PIPERAZINE-1-CARBOXYLIC ACID 3,4-DICHLORO-BENZYLAMIDE]
  IC50: 10 to 50 µM

## O=C(CC1CNCCN1C(=O)Nc1ccc(-c2ccccc2)cc1)Nc1ccc(C2CCCCC2)cc1 (stereo not drawn) [Compound 161, 2-[(4-CYCLOHEXYL-PHENYLCARBAMOYL)-METHYL]-PIPERAZINE-1-CARBOXYLIC ACID BIPHENYL-4-YLAMIDE]
  IC50: 10 to 50 µM

## Cc1ccc(NC(=O)C(CCCCN)NC(=O)Nc2ccc(C(F)(F)F)cc2)cc1 [Compound 42, (S)-6-AMINO-2-[3-(4-TRIFLUOROMETHYL-PHENYL)-UREIDO]-HEXANOIC ACID P-TOLYLAMIDE]
  IC50: 10 to 50 µM

## Cc1cc2cc(NC(=O)[C@H](CCCCNC(=O)CN)NC(=O)OCC3c4ccccc4-c4ccccc43)ccc2[nH]1 [Compound 233, (S)-[5-(2-AMINO-ACETYLAMINO)-1-(2-METHYL-1H-INDOL-5-YLCARBAMOYL)-PENTYL]-CARBAMIC ACID 9H-FLUOREN-9-YLMETHYL ESTER]
  IC50: < 10 µM

## Cc1ccc(NC(=O)C(Cc2c[nH]c3ccccc23)NC(=O)OCC2c3ccccc3-c3ccccc32)cc1 [Compound 379, (R)-[2-(1H-INDOL-3-YL)-1-P-TOLYLCARBAMOYL-ETHYL]-CARBAMIC ACID 9H-FLUOREN-9-YLMETHYL ESTER]
  IC50: > 50 µM

## Cc1ccc(NC(=O)C(CCCCN)NC(=O)Nc2cccc(-c3nc4ccccc4o3)c2)cc1 [Compound 257, (S)-6-AMINO-2-[3-(3-BENZOOXAZOL-2-YL-PHENYL)-UREIDO]-HEXANOIC ACID P-TOLYLAMIDE]
  IC50: > 50 µM

## Cc1ccc(NC(=O)[C@H](CCCCN)NC(=O)NCc2ccc(Cl)cc2)cc1 [Compound 167, (S)-6-AMINO-2-[3-(4-CHLORO-BENZYL)-UREIDO]-HEXANOIC ACID P-TOLYLAMIDE]
  IC50: > 50 µM
